# “Also recorded” adds a separate entry of the source.
# What was measured:
# KCNQ2/KCNQ3-W265L = KCNQ2/KCNQ3-W265L (Homo sapiens, UniProt O43525+O43526, W265L); assay: TEVC of KCNQ2/KCNQ3-W265L channels; type: cell-based
# Source text: (§1) cRNA transcripts encoding human KCNQ2, KCNQ3, KCNQ4, KCNQ5 (Kv7.2-Kv7.5) were generated by in vitro transcription using the T7 polymerase mMessage mMachine kit (Thermo Fisher Scientific), after vector linearization, from cDNA sub-cloned into plasmids incorporating Xenopus laevis β-globin 5′ and 3′ UTRs flanking the coding region to enhance translation and cRNA stability. cRNA was quantified by spectrophotometry. Mutant KCNQ2 and KCNQ3 cDNAs were generated with site-directed mutagenesis using a QuikChange kit according to the manufacturer's protocol (Stratagene, San Diego, Calif.) and corresponding cRNAs prepared as above. Defolliculated stage V and VI Xenopus laevis oocytes (Ecocyte Bioscience, Austin, Tex.) were injected with KCNQ channel α subunit cRNAs (5-10 ng). The oocytes were incubated at 16° C. in Barth's saline solution (Ecocyte) containing penicillin and streptomycin, with daily washing, for 2-5 days prior to two-electrode voltage-clamp (TEVC) recording.
# TEVC recording was performed at room temperature using a OC-725C amplifier (Warner Instruments, Hamden, Conn.) and pClamp8 software (Molecular Devices, Sunnyvale, Calif.) 2-5 days after cRNA injection as described in the section above. The oocytes were placed in a small-volume oocyte bath (Warner) and viewed with a dissection microscope. Unless otherwise stated, chemicals were sourced from Sigma. Bath solution was (in mM): 96 NaCl, 4 KCl, 1 MgCl2, 1 CaCl2, 10 HEPES (pH 7.6). […] The drugs were introduced into the recording bath by gravity perfusion at a constant flow of 1 ml per minute for 3 minutes prior to recording. Pipettes were of 1-2 MΩ resistance when filled with 3 M KCl. Currents were recorded in response to pulses between −80 mV and +40 mV at 20 mV intervals, or a single pulse to +40 mV, from a holding potential of −80 mV, to yield current-voltage relationships, current magnitude, and for quantifying activation rate. Deactivation was recorded at −80 mV after a single pulse to +40 mV, from a holding potential of −80 mV. Electrophysiology data analysis was performed with Clampfit (Molecular Devices) and Graphpad Prism software (GraphPad, San Diego, Calif., USA); values are stated as mean±SD. Raw or normalized tail currents were plotted versus prepulse voltage and fitted with a single Boltzmann function:
# As previously described (12), we generated cRNA transcripts encoding human KCNA1, KCNE1, KCNE2, KCNE3, KCNQ1, KCNQ2, KCNQ3, KCNQ4 or KCNQ5 by in vitro transcription using the T7 polymerase mMessage mMachine kit (Thermo Fisher Scientific), after vector linearization, from cDNA sub-cloned into plasmids incorporating Xenopus laevis β-globin 5′ and 3′ UTRs flanking the coding region to enhance translation and cRNA stability. We quantified cRNA by spectrophotometry. […]
# KCNQ4 = KCNQ4 (Homo sapiens, UniProt P56696); assay: TEVC of homomeric KCNQ4 expressed in Xenopus oocytes; type: cell-based
# Source text: cRNA transcripts encoding human KCNA1, KCNQ1, KCNQ2, KCNQ3, KCNQ4, or KCNQ5 were generated by in vitro transcription using the T7 polymerase message machine kit (Thermo Fisher Scientific), after vector linearization, from cDNA sub-cloned into plasmids incorporating X. laevis β-globin 5′ and 3′ UTRs flanking the coding region to enhance translation and cRNA stability. cRNA was quantified by spectrophotometry. Mutant cDNAs were generated by site-directed mutagenesis using a QuikChange kit according to manufacturer's protocol (Stratagene, San Diego, Calif.) and corresponding cRNAs prepared as above. Defolliculated stage V and VI X. laevis oocytes (Ecocyte Bioscience, Austin, Tex.) were injected with Kv channel a subunit cRNAs (10 ng total per oocyte). Oocytes were incubated at 16° C. in Barth's saline solution (Ecocyte) containing penicillin and streptomycin, with daily washing, for 3-5 days prior to two-electrode voltage-clamp (TEVC) recording.
# TEVC recording was performed at room temperature with an OC-725C amplifier (Warner Instruments, Hamden, Conn.) and pClamp10.2 software (Molecular Devices, Sunnyvale, Calif.) 3-5 days after cRNA injection as described in the section above. Oocytes were placed in a small-volume oocyte bath (Warner) and viewed with a dissection microscope. Chemicals were sourced from Sigma. Bath solution was (in mM): 96 NaCl, 4 KCl, 1 MgCl2, 1 CaCl2. 10 HEPES (pH 7.6). […] MTX (DMSO), sorbic acid (ethanol), and glutaconic acid (molecular grade H2O) were stored at −20° C. as 1 M stocks. Oleamide was stored as a 1 mM stock in ethanol at 4° C. Palmitic acid was conjugated with bovine serum albumin as a 1 mM stock and stored at −20° C. All compounds were diluted to working concentrations each experimental day. All compounds were introduced to the recording bath via gravity perfusion at a constant flow of 1 ml/min for 3 min prior to recording. Pipettes were of 1-2 MΩ resistance when filled with 3 M KCl. Currents were recorded in response to pulses between −80 and +40 mV at 20 mV intervals, or a single pulse to +40 mV, from a holding potential of −80 mV, to yield current-voltage relationships, current magnitude, and for quantifying activation rate. TEVC data analysis was performed with Clampfit10.2 (Molecular Devices) and Graphpad Prism software (GraphPad, San Diego, Calif., USA); values are stated as mean±SEM. Normalized tail currents were plotted versus prepulse voltage and fitted with a single Boltzmann function:
# as §1
# TEVC recording was performed at room temperature using a OC-725C amplifier (Warner Instruments, Hamden, Conn.) and pClamp8 software (Molecular Devices, Sunnyvale, Calif.) 2-5 days after cRNA injection as described in the section above. The oocytes were placed in a small-volume oocyte bath (Warner) and viewed with a dissection microscope. Unless otherwise stated, chemicals were sourced from Sigma. Bath solution was (in mM): 96 NaCl, 4 KCl, 1 MgCl2, 1 CaCl2, 10 HEPES (pH 7.6).
SMILES,effect on KCNQ2/KCNQ3-W265L (in words) (KCNQ2/KCNQ3-W265L),effect on KCNQ4 (in words) (KCNQ4),also measured
CS(=O)(=O)N(CC(=O)O)c1cccc(F)c1 [3FMSG],dependent on KCNQ3-W265; also recorded: eliminated effects of 3FMSG,negligible effects,–
CCCCCCCCC/C=C/C=O [(E)-2-dodecenal],–,–,"maximal shift in ΔV0.5activation (KCNQ2/KCNQ3-W265L; (E)-2-dodecenal): −9 mV; EC50 (KCNQ2/KCNQ3-W265L; ΔV0.5activation, read-out: EC50 of (E)-2-dodecenal): 0.27 ± 0.02 µM"
"CC(=O)c1c(O)c(C)c(O)c(Cc2c(O)c3c(c(C(=O)/C=C/c4ccccc4)c2O)OC(C)(C)C=C3)c1O [MTX, mallotoxin]",–,–,"shift of midpoint voltage of KCNQ4 activation (KCNQ4; MTX 30 μM): −17 mV; EC50 (KCNQ4; −60 mV, read-out: EC50 of KCNQ4 activation): 20.2 µM"
"NCC1(CC(=O)O)CCCCC1 [gabapentin, reference compound]",insensitive,insensitive,–
"NCC(=O)O [glycine, reference compound]",–,unable to open,–
